≈ marks a conversion by molar mass, not a printed value. Calls of active or inactive are those of the source. The rule behind the calls is not given here.
Experiments:
Danio rerio [1] = assay: Cardioprotective activity against doxorubicin-induced Zebrafish cardiomyopathy model assessed as survival rate at 5 to 15 uM fertilized for 24 hrs followed by compound administration for 72 hrs and measured at 96 hrs post fertilization by inverted fluorescence microscopic analysis; format: functional; settings: dose 5-15 µM
[2] = Water solubility of the compound measured for 24 hrs by HPLC analysis; format: physicochemical
Danio rerio [3] = assay: Cardioprotective activity against doxorubicin-induced Zebrafish cardiomyopathy model assessed as survival rate at 5 uM fertilized for 24 hrs followed by compound administration for 72 hrs and measured at 96 hrs post fertilization by inverted fluorescence microscopic analysis; format: functional; settings: Danio rerio
[4] = Toxicity in zebrafish embryos assessed as survival at upto 40 uM fertilized for 24 hrs followed by compound administration for 72 hrs and measured at 96 hrs post fertilization; parameters: species or system Danio rerio; settings: in vivo
Danio rerio [5] = assay: Cardioprotective activity against doxorubicin-induced Zebrafish cardiomyopathy model at 5 to 15 uM fertilized for 24 hrs followed by compound administration for 72 hrs and measured at 96 hrs post fertilization by inverted fluorescence microscopic analysis; format: functional, organism-based; settings: dose 5-15 µM
Danio rerio [6] = assay: Cardioprotective activity against doxorubicin-induced Zebrafish cardiomyopathy model assessed as survival rate at 15 uM fertilized for 24 hrs followed by compound administration for 72 hrs and measured at 96 hrs post fertilization by inverted fluorescence microscopic analysis; format: functional
Danio rerio [7] = assay: Cardioprotective activity against doxorubicin-induced Tg(cmlc2: GFP) Zebrafish assessed as […] at 10 uM measured at 72 hrs post fertilization; format: functional, organism-based
Danio rerio [8] = assay: Cardioprotective activity against doxorubicin-induced Zebrafish cardiomyopathy model assessed as survival rate at 10 uM fertilized for 24 hrs followed by compound administration for 72 hrs and measured at 96 hrs post fertilization by inverted fluorescence microscopic analysis; format: functional
Danio rerio [9] = organism: Danio rerio; assay: Cardioprotective activity against doxorubicin-induced Tg(cmlc2: GFP) Zebrafish assessed as restoration of normal heart structure at 10 uM measured at 72 hrs post fertilization; format: functional, organism-based
Danio rerio [10] = organism: Danio rerio; assay: Cardioprotective activity against doxorubicin-induced Tg(cmlc2: GFP) Zebrafish assessed as restoration of normal heart structure at 1 uM measured at 72 hrs post fertilization; format: functional, organism-based
Danio rerio [11] = organism: Danio rerio; assay: Cardioprotective activity against doxorubicin-induced Tg(cmlc2: GFP) Zebrafish assessed as reduction in cTnT mRNA level measured at 72 hrs post fertilization by qPCR analysis; format: functional, organism-based; settings: dose <= 5.0 µM
Danio rerio [12] = organism: Danio rerio; assay: Cardioprotective activity against doxorubicin-induced Tg(cmlc2: GFP) Zebrafish assessed as reduction in Anp mRNA level measured at 72 hrs post fertilization by qPCR analysis; format: functional, organism-based; settings: dose <= 5.0 µM
Danio rerio [13] = assay: Cardioprotective activity against doxorubicin-induced Zebrafish cardiomyopathy model assessed as survival rate at 1 uM fertilized for 24 hrs followed by compound administration for 72 hrs and measured at 96 hrs post fertilization by inverted fluorescence microscopic analysis; format: functional
Danio rerio [14] = assay: Cardioprotective activity against doxorubicin-induced Tg(cmlc2: GFP) Zebrafish assessed as […] at 1 uM measured at 72 hrs post fertilization; format: functional, organism-based
Danio rerio [15] = organism: Danio rerio; assay: Cardioprotective activity against doxorubicin-induced Tg(cmlc2: GFP) Zebrafish assessed as reduction in Bnp mRNA level measured at 72 hrs post fertilization by qPCR analysis; format: functional, organism-based

In the case of `C[C@@]12CC[C@@H]3[C@@](CC[C@H]4[C@@]3(C)CCC[C@@]4(C)C(=O)N3CCN(C(=O)c4ccccc4C(=O)O)CC3)(CC1=O)C2`, the Survival (Danio rerio [1]) was 50%, the solubility at 24 h [2] was 940 µg/mL (≈ 1760 µM) and the survival at 5 µM (Danio rerio [3]) was 50%. For the same compound, the Activity [4] was “Non-Toxic”.

In the case of `CC(C)(C)OC(=O)N1CCN(C(=O)[C@]2(C)CCC[C@@]3(C)[C@@H]4CC[C@@]5(C)C[C@]4(CC[C@@H]32)CC5=O)CC1`, the Activity (Danio rerio [5]) was “Active”.

With `C[C@@]12CC[C@@H]3[C@@](CC[C@H]4[C@@]3(C)CCC[C@@]4(C)C(=O)N3CCN(C(=O)/C=C/C(=O)O)CC3)(CC1=O)C2` the Activity (Danio rerio [5]) was “Active” and the survival at 15 µM (Danio rerio [6]) was 50%.

For `C[C@@]12CC[C@@H]3[C@@](CC[C@H]4[C@@]3(C)CCC[C@@]4(C)C(=O)N3CCNCC3)(CC1=O)C2`, the Activity (Danio rerio [5]) was “Active”.

For `C[C@@]12CC[C@@H]3[C@@](CC[C@H]4[C@@]3(C)CCC[C@@]4(C)C(=O)O)(CC1=O)C2` [ISOSTEVIOL], the Activity (Danio rerio [5]) was “Active”, the Activity (Danio rerio [7]) was “Active” and the survival at 10 µM (Danio rerio [8]) was 43%. The Activity [4] was “Non-Toxic” and the Activity (Danio rerio [9]) was “Active”.

In the case of `C[C@@]12CC[C@@H]3[C@@](CC[C@H]4[C@@]3(C)CCC[C@@]4(C)C(=O)N3CCN(C(=O)COCC(=O)O)CC3)(CC1=O)C2`, the Activity (Danio rerio [5]) was “Active”.

For `CC(CC(=O)O)C(=O)N1CCN(C(=O)[C@]2(C)CCC[C@@]3(C)[C@@H]4CC[C@@]5(C)C[C@]4(CC[C@@H]32)CC5=O)CC1` (some centres not stated), the Activity (Danio rerio [5]) was “Active”.

With `Cc1ccc(C(=O)O)c(C(=O)N2CCN(C(=O)[C@]3(C)CCC[C@@]4(C)[C@@H]5CC[C@@]6(C)C[C@]5(CC[C@@H]43)CC6=O)CC2)c1` the Activity (Danio rerio [10]) was “Active”, the Activity (Danio rerio [11]) was “Dose-Dependent Effect” and the Activity (Danio rerio [12]) was “Dose-Dependent Effect”. For the same compound, the survival at 1 µM (Danio rerio [13]) was 90%, the Activity (Danio rerio [14]) was “Active” and the Activity [4] was “Non-Toxic”. For the same compound, the Activity (Danio rerio [15]) was “Dose-Dependent Effect”.
